Here are results for three compounds from US20260327216A1, “SUBSTITUTED OXAZOLONE COMPOUND FOR DECREASING LEVELS OF IKZF I-4 PROTEINS” (BRISTOL-MYERS SQUIBB COMPANY, priority 2023, published 2026).

In one test the target is IKZF1 Ikaros (Homo sapiens, UniProt Q13422+Q96SW2). Put plainly: Jurkat Cellular Degradation Assay, IKZF1. The class given is cell-based. Also on record: endogenous in cells. Particulars: Jurkat cells, 72 h; for Dmax: human, 100% = complete degradation, 0% = no detectable degradation, read-out: IKZF1 Ikaros max % deg. observed. Here is the method:
Jurkat cells were plated at 80,000 cells/well in 40 μL RPMI+10% FBS in a 384-well cell culture plate prior to using acoustic dispensing technology for adding a compound of interest. Cell cultures were incubated for 72 h at 37° C. and 5% CO2. In order to facilitate analysis, cell cultures were spun down at 200 rpm for 5 min and the supernatant was discarded. After shaking the plate to dislodge the cell pellet, cells were resuspended in 50 μL of Fixation Buffer (eBioscience FoxP3 buffer set 00-5523-00) for 60 min at room temperature. After centrifuging and discarding the supernatant, cells were permeabilized with 50 μL of Permeabilization buffer (eBioscience FoxP3 buffer set 00-5523-00) for 10 min at room temperature. Following permeabilization, cells were spun down and the supernatant was replaced with 20 μL fluorescently labelled antibodies against Helios, Ikaros and Aiolos or corresponding Isotype controls in 1× Permeabilization buffer (Ikaros-Alexa488 [Biolegend, Cat #368408, 1:50], Helios-PE [CST, Cat #29360, 1:50], Aiolos-Alexa647 [Biolegend, Cat #371106 Biolegend, 1:25]) and staining reactions were incubated for 1 h at room temperature while protected from light. Subsequently, 30 μL of 1× Permeabilization buffer was added prior to centrifuging the cells and discarding the supernatant. Stained cells were resuspended in 25 μL of flow cytometry staining buffer [PBS+0.2% bovine serum albumin (BSA)] and analyzed using an Intellicyt Ique Plus flow cytometer.
Table A-1 lists the maximum observed degradation of the IKZF1 protein, IKZF2 protein, and IKZF3 protein as measured in the Jurkat Cellular Degradation assay. The results in Table A-1 were rounded to two digits. In the Jurkat Cellular Degradation assay, a value of 100% indicated no detectable protein remaining or complete degradation of the protein; and a value of 0% indicated no detectable degradation of the protein by the test compound.

For a further test, the target named is IKZF2 Helios (Homo sapiens, UniProt Q96SW2+Q9UKS7). Put plainly: Human Regulatory T Cell Reprogramming Assay, IKZF2. Type of test: cell-based. Also on record: endogenous in cells; host or cells: FACS-sorted human CD4+CD127lowCD25+ Treg cells from healthy leukopaks. To be noted: 12-13 days; for IKZF2 Helios max % deg. observed / Dmax: human CD4+CD127lowCD25+ Treg cells, stimulated, 100% = complete degradation; for Dmax: Regulatory T cell, human, read-out: IKZF2 Helios max % deg. observed. Here is the method: Human CD4^+ T cells were isolated from fresh healthy leukopaks (Stemcell Technologies) using the RosetteSep Human CD4^+ T cell enrichment cocktail (Stemcell Technologies) and Ficoll density gradient centrifugation. Leukopaks were diluted with an equal volume of phosphate-buffered saline (PBS [Gibco]) supplemented with 2% fetal bovine serum (FBS, VWR Lifescience) and incubated with RosetteSep Human CD4^+ T cell enrichment cocktail for 20 minutes before layering on Ficoll-Paque Plus solution (GE Health Care). The cell-rich interface layer was harvested and washed twice with PBS supplemented with 2% FBS. Regulatory T cells were then isolated manually using the EasySep Human CD4^+CD127^lowCD25^+ Regulatory T cell isolation kit (Stemcell Technologies) according to the manufacturer's instructions. Cells were rested overnight in Roswell Park Memorial Institute (RPMI) 1640 media (Gibco) supplemented with 10% FBS, Pen/Strep (Gibco), MEM-NEAA (Gibco), and sodium pyruvate (Gibco) in a humidified incubator (37° C., 5% CO2). Cells were then stained for CD4 (clone: RPA-T4, Biolegend), CD25 (clone: 2A3, BD Biosciences), and CD127 (clone: hIL-7R-M21, BD Biosciences). CD4^+CD127^lowCD25^+ cells were sorted on a BD FACS Aria Fusion sorter to a purity of 95% or greater. Sorted cells were immediately used or cryopreserved for downstream assays.
Fresh or cryopreserved FACS-sorted CD4^+CD127^lowCD25^+ Treg cells were cultured at 25,000-50,000 cells/well of 96-well round bottom plates in RPMI 1640 media (Gibco) supplemented with 10% FBS, Pen/Strep (Gibco), MEM-NEAA (Gibco), and sodium pyruvate (Gibco). Cells were stimulated with Treg Xpander beads (Thermo Fisher) at cells-to-beads ratio of 1:4 in the presence of 500 U/mL recombinant human IL-2 (Proleukin). Compounds were added at titrated doses and cells were incubated at 37°C., 5% CO2 for 12-13 days. Recombinant human IL-2 and compound were replenished every 2-3 days during the entire culture duration. On day 12 or 13, cells were restimulated with phorbol 12-myristate 13-acetate (PMA) and ionomycin in the presence of the protein transport inhibitors brefeldin A and monensin (eBioscience Cell Stimulation Cocktail plus protein transport inhibitors, 500×, Catalog number 00-4975-93) before proceeding with flow cytometry staining and analysis.
For flow cytometry staining, cells were washed twice with flow cytometry staining buffer (Thermo Fisher) and incubated in Human Tru-stain Fc block (Biolegend) for 10 minutes before adding eFluor780 viability dye (Thermo Fisher) and surface marker antibody cocktail for 30 minutes at 4° C. Cells were then fixed and permeabilized by incubation with FoxP3 transcription factor staining buffer (Thermo Fisher) for 30 minutes at 4° C. as per the kit manufacturer's instructions. Cells were washed twice with the Perm/Wash buffer supplied in the kit as per the manufacturer's instructions and incubated overnight at 4° C. with an intracellular antibody cocktail comprised of antibodies specific for the transcription factors shown in Table C. Cells were washed twice with Perm/Wash buffer and resuspended in flow cytometry staining buffer (Thermo Fisher) prior to acquisition. Sample acquisition and analysis was performed using a BD LSRFortessa (BD Biosciences) flow cytometer. Single stain controls for each fluorochrome were prepared using UltraComp eBead Compensation Beads (Thermo Fisher). Data were analyzed using FlowJo version 10 and GraphPad Prism Software.
Table C-1 lists the maximum observed degradation of the IKZF2 protein and IKZF4 protein as measured in the Human Regulatory T Cell Reprogramming assay. The results in Table C-1 were rounded to two digits. In the Human Regulatory T Cell Reprogramming assay, a value of 100% indicated no detectable protein remaining or complete degradation of the protein; and a value of 0% indicated no detectable degradation of the protein by the test compound.

Where only a bound is given, the exact number is not on record here.

IKZF1 Ikaros, sequence (Q13422 whole entry): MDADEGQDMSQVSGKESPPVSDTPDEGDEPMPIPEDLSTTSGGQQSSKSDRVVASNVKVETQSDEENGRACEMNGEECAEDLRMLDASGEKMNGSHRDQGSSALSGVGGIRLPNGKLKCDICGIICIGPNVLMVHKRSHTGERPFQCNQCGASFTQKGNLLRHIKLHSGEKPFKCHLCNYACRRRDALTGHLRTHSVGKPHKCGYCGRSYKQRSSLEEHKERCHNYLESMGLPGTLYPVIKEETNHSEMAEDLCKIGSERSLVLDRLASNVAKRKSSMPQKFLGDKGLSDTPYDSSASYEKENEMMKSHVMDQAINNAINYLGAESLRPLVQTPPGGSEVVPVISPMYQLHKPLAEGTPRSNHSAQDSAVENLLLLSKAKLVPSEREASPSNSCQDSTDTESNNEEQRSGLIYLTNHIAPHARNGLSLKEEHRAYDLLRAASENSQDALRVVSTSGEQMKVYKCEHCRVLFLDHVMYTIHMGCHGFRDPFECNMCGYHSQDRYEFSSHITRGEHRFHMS
IKZF1 Ikaros, sequence (Q96SW2 whole entry): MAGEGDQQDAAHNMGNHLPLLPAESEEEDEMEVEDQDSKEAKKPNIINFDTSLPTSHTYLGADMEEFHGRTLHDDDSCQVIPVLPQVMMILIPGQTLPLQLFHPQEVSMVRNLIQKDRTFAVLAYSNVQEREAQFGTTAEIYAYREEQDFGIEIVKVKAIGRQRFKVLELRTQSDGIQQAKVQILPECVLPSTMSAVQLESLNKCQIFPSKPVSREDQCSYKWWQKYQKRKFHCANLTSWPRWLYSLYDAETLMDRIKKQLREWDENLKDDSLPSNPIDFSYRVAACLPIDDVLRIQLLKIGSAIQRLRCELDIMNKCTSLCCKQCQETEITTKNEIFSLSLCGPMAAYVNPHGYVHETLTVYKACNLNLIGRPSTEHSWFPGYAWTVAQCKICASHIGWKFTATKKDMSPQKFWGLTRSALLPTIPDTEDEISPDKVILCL
IKZF1 Ikaros, sequence (Q16531 whole entry partner): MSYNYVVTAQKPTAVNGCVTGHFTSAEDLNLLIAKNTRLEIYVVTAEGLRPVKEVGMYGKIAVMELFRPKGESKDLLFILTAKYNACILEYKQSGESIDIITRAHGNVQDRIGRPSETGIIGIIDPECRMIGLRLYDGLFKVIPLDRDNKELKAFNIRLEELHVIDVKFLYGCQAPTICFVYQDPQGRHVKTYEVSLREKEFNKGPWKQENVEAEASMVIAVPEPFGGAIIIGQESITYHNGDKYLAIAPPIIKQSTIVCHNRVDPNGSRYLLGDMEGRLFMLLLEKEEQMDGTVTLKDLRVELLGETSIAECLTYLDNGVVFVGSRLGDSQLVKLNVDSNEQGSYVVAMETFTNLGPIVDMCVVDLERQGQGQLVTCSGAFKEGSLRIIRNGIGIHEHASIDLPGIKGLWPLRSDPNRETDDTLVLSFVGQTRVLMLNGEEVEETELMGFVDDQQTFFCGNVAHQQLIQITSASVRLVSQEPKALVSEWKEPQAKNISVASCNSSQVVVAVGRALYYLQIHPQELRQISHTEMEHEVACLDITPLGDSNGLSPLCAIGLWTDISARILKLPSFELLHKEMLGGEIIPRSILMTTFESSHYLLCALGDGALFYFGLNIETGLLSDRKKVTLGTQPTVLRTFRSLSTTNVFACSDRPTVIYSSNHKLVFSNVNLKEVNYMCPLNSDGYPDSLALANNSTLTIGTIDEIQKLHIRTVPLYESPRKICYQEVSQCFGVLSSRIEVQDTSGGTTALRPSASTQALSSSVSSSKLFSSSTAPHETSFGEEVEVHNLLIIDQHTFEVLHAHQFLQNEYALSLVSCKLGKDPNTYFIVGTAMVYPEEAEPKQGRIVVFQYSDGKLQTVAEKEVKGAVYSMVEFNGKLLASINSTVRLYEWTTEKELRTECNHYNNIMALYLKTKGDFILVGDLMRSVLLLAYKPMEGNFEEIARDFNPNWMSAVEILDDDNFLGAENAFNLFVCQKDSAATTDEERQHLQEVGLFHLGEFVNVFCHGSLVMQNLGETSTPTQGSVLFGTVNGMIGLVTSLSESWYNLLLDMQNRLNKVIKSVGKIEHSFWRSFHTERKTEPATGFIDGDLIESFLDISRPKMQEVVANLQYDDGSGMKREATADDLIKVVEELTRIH
IKZF2 Helios, sequence (Q9UKS7 whole entry): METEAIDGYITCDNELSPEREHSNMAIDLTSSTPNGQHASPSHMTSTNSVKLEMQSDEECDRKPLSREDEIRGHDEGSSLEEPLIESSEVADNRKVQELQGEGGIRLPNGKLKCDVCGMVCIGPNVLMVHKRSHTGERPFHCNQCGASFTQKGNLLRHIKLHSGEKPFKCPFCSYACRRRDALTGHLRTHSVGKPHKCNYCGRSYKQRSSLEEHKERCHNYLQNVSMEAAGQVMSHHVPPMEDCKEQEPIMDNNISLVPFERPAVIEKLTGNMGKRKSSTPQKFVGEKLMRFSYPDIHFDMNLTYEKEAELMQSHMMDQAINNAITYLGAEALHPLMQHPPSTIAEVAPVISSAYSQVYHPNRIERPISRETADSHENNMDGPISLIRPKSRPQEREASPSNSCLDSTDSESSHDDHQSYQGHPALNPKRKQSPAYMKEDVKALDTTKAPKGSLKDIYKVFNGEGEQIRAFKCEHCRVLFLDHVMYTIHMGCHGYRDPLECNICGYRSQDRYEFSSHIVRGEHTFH
IKZF2 Helios, sequence (Q96SW2 whole entry): as the sequence (Q96SW2 whole entry) above
IKZF2 Helios, sequence (Q16531 whole entry partner): as the sequence (Q16531 whole entry partner) above

For the compound `O=C1CCC(n2cc(-c3ccccc3)oc2=O)C(=O)N1` (stereo not shown) [Comparative Compound A, 3-(2-oxo-5-phenyloxazol-3(2H)-yl)piperidine-2,6-dione], the Dmax at IKZF1 Ikaros was found to be 57%. At IKZF2 Helios, the “IKZF2 Helios max % deg. observed” value was 1%.

With `Cc1cc(-c2ccc(-c3cn(C4CCC(=O)NC4=O)c(=O)o3)c(F)c2)nc(N)c1OC(F)F` (stereo not shown) [Example 1, 3-(5-(4-(6-Amino-5-(difluoromethoxy)-4-methylpyridin-2-yl)-2-fluorophenyl)-2-oxooxazol-3(2H)-yl)piperidine-2,6-dione], the DC50 on IKZF1 Ikaros (concentration reducing protein level by 50% vs DMSO) is 749 nM; on IKZF2 Helios (human Treg cells, concentration reducing protein level by 50% vs DMSO) it was 1.1 to 1.4 nM. Moreover, the results for the Dmax on IKZF1 Ikaros and at IKZF2 Helios were 70% and 86 to 92%, respectively. Besides, the “IKZF2 Helios max % deg. observed” value at IKZF2 Helios was 86-92%.

On to `O=C1CCC(n2cc(-c3ccc(Br)cc3F)oc2=O)C(=O)N1` (stereo not shown) [Comparative Compound B, 3-(5-(4-bromo-2-fluorophenyl)-2-oxooxazol-3(2H)-yl)piperidine-2,6-dione], for which the Dmax at IKZF1 Ikaros is 17%; on IKZF2 Helios, at most 6%. Further, at IKZF2 Helios, the “IKZF2 Helios max % deg. observed” value worked out at 6%.
